Here are results for 89 molecules from ChEMBL document CHEMBL2449286, “Structure-activity data for a series of P-glycoprotein inhibitors (Supplementary Data to CHEMBL1142990)”.

In the assay the target is ATP-dependent translocase ABCB1 (Homo sapiens, UniProt P08183).
ATP-dependent translocase ABCB1, sequence (P08183 whole entry): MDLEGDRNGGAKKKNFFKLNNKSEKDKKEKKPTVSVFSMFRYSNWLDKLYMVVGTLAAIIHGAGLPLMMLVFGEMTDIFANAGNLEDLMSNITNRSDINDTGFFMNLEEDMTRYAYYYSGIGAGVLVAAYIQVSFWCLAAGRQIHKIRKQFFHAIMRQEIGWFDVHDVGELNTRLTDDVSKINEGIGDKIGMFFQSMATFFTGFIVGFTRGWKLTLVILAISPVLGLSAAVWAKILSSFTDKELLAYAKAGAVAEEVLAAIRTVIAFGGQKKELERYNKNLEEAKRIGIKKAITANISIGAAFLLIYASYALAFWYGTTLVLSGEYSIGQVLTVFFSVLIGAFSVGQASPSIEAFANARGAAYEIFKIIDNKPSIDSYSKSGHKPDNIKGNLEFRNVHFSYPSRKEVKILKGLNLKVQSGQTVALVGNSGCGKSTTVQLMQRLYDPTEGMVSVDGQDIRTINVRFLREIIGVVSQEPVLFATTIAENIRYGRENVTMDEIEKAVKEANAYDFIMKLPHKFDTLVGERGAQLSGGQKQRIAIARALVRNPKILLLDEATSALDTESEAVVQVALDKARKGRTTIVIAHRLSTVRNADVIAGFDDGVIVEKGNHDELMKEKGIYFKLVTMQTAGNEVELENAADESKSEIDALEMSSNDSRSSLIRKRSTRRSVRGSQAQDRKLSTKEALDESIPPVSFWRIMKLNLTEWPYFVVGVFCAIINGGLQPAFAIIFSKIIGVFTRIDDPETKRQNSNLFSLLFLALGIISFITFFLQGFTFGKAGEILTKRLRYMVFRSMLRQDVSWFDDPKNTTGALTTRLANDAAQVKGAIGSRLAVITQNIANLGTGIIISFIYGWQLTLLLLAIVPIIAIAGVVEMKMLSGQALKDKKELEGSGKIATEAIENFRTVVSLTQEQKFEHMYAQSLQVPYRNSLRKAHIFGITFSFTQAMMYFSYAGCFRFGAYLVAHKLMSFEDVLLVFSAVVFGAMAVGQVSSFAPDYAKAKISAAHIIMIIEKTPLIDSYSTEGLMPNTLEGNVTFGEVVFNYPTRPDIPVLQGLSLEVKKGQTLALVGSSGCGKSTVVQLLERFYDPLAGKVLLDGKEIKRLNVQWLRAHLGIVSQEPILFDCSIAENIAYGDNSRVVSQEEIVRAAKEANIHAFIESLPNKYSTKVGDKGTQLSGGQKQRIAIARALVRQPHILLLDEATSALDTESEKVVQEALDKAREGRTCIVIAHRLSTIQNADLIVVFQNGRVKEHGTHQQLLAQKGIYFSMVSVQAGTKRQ

Regarding `Cc1cccc(N2CCN(C[C@@H](O)COc3cccc(C(=O)CCc4ccccc4)c3)CC2)c1C`, the EC50 – broadly, the concentration at which the effect is half-maximal – was 0.138 µM. Under `CC(=O)c1cccc(OC[C@H](O)CN2CCN(c3ccc(F)cc3)CC2)c1` stands 10 µM; under `O=C(CCc1ccccc1)c1ccccc1OC[C@H](O)CN1CCN(C(=O)c2ccccc2)CC1`, 0.129 µM; under `CC(=O)c1ccc(OC[C@H](O)CN2CCCCC2)cc1`, 49 µM. Under `CC(=O)c1ccc(OC[C@H](O)CN2CCN(c3ccc(F)cc3)CC2)cc1` stands 11.7 µM; under `CC(=O)c1ccc(OC[C@H](O)CN2CCOCC2)cc1`, 302 µM; under `CN(CCN(C)S(=O)(=O)c1cccc2c(N(C)C)cccc12)C[C@@H](O)COc1ccccc1C(=O)c1ccccc1`, 1.82 µM. For the molecule `CCCNC[C@@H](O)COc1ccc(C)cc1C(=O)c1ccccc1`, the response was half-maximal at 1.2 µM (EC50). Under `CC(C)[C@H](NC[C@@H](O)COc1ccccc1C(=O)CCc1ccccc1)c1ccccc1` stands 0.209 µM. Under `O=C(CCc1ccccc1)c1ccccc1OC[C@H](O)CN[C@@H](c1ccccc1)C1CCCCC1` stands 0.145 µM; under `Cc1ccccc1N1CCN(C[C@@H](O)COc2cc(Cl)c(Cl)cc2C(=O)CCc2ccccc2)CC1`, 0.017 µM.

In the case of `O=C1CCc2cccc(OC[C@H](O)CN3CCCCC3)c21`, the EC50 is 9.77 µM. With `CC(C)(C)[C@@H](NC[C@@H](O)COc1ccccc1C(=O)CCc1ccccc1)c1ccccc1`, it took 0.295 µM to reach a half-maximal effect (EC50). As for `O=C1CCc2c(OC[C@H](O)CN3CCCCC3)cccc21`, the figure is 11.2 µM.

On to `O=C1c2c(cccc2OC[C@H](O)CN2CCCCC2)C[C@@H]1Cc1ccccc1`, for which the EC50 was 0.214 µM. As for `O=C1c2cccc(OC[C@H](O)CN3CCCCC3)c2C[C@H]1Cc1ccccc1`, the figure is 0.141 µM. Under `Cc1cccc(N2CCN(C[C@@H](O)COc3cccc4c3C(=O)[C@@H](Cc3ccccc3)C4)CC2)c1C` stands 0.166 µM.

Molecule `COc1ccc(N2CCN(C[C@@H](O)COc3cccc4c3C(=O)[C@@H](Cc3ccccc3)C4)CC2)cc1` gave an EC50 of 0.389 µM. As for `O=C1c2c(cccc2OC[C@H](O)CN2CCOCC2)C[C@@H]1Cc1ccccc1`, the figure is 0.295 µM. As for `O=C1C[C@H](CN2CCCCC2)Oc2ccccc21`, the figure is 178 µM; as for `O=C1C[C@H](CN2CCN(c3ccc(F)cc3)CC2)Oc2ccccc21`, 17.8 µM; as for `Cc1cccc(N2CCN(C[C@H]3CC(=O)c4ccccc4O3)CC2)c1C`, 2.04 µM. `O=C1C[C@H](CN2CCN(Cc3ccccc3)CC2)Oc2ccccc21` gave an EC50 of 8.91 µM. Under `O=C1C[C@H](CN2CCOCC2)Oc2ccccc21` stands 1260 µM. On to `CC(=O)c1ccc(OC[C@H](O)CN2CCN(c3ccccc3C)CC2)cc1`, for which a half-maximal response (EC50) required 1.55 µM. As for `CC(=O)c1cccc(OC[C@H](O)CN2CCN(c3cccc(C)c3C)CC2)c1`, the figure is 0.38 µM; as for `O=C([C@@H]1Oc2ccccc2[C@@H]1CCc1ccccc1)N1CCCCC1`, 6.61 µM; as for `C[C@H]1c2ccccc2O[C@H]1C(=O)N1CCCCC1`, 105 µM. With `c1ccc(CC[C@H]2c3ccccc3O[C@H]2CN2CCCCC2)cc1`, the EC50 is 1.62 µM. As for `C[C@H]1c2ccccc2O[C@H]1CN1CCCCC1`, the figure is 49 µM; as for `CC(=O)c1cccc(OC[C@H](O)CN2CCN(c3ccccc3C)CC2)c1`, 0.537 µM; as for `Cc1cccc(N2CCN(C[C@@H](O)COc3ccc(C(=O)CCc4ccccc4)cc3)CC2)c1C`, 0.229 µM. Under `COc1ccc(C(=O)CCc2ccccc2)c(OC[C@H](O)CN2CCN(c3ccccc3C)CC2)c1` stands 0.0309 µM; under `COc1ccc(C(=O)CCc2ccccc2)c(OC[C@H](O)CN2CCCCC2)c1`, 0.295 µM; under `Cc1ccccc1N1CCN(C[C@@H](O)COc2ccccc2C(=O)CCc2ccc(N(C)C)cc2)CC1`, 0.0129 µM.

As for `COc1ccc(OC[C@H](O)CN2CCN(c3ccccc3C)CC2)c(C(C)=O)c1`, it took 0.851 µM to reach a half-maximal effect (EC50). Under `COc1ccc(C(=O)CCc2ccc(N(C)C)cc2)c(OC[C@H](O)CN2CCN(c3ccccc3C)CC2)c1` stands 0.0398 µM; under `CC(=O)c1ccc(OC[C@H](O)CNCCC(c2ccccc2)c2ccccc2)cc1`, 0.178 µM.

For `Cc1ccccc1N1CCN(C[C@@H](O)COc2cccc(C(=O)CCc3ccccc3)c2)CC1`, the midpoint of the response, the EC50, lay at 0.0741 µM. As for `O=C(CCc1ccccc1)c1cccc(OC[C@H](O)CNCCC(c2ccccc2)c2ccccc2)c1`, the figure is 0.191 µM; as for `O=C(CCc1ccccc1)c1cccc(OC[C@H](O)CN2CCOCC2)c1`, 3.47 µM; as for `O=C(CCc1ccccc1)c1ccc(OC[C@H](O)CNCCC(c2ccccc2)c2ccccc2)cc1`, 0.501 µM. As for `O=C(CCc1ccccc1)c1cc(OCc2ccccc2)ccc1OC[C@H](O)CN1CCC(O)(c2ccccc2)CC1`, the figure is 0.0851 µM; as for `CC(C)(C)OC(=O)N1CCN(C[C@@H](O)COc2ccccc2C(=O)c2ccccc2)CC1`, 0.871 µM.

In turn, `CC(=O)c1ccccc1OC[C@H](O)CN(C(C)C)C(C)C` gave an EC50 of 10 µM. Under `O[C@@H](COc1ccccc1[C@@H](O)CCc1ccccc1)CN1CCN(Cc2ccccc2)CC1` stands 0.186 µM. In the case of `CO[C@@H](CCc1ccccc1)c1ccccc1OC[C@H](O)CN1CCN(Cc2ccccc2)CC1`, the EC50 is 0.0794 µM. Under `Cc1ccccc1N1CCN(C[C@@H](O)COc2ccccc2[C@@H](O)CCc2ccccc2)CC1` stands 0.0447 µM; under `CO[C@@H](CCc1ccccc1)c1ccccc1OC[C@H](O)CN1CCN(c2ccccc2C)CC1`, 0.0363 µM; under `Cc1cccc(N2CCN(C[C@@H](O)COc3ccccc3[C@@H](O)CCc3ccccc3)CC2)c1C`, 0.0832 µM. As for `CCC(=O)c1ccccc1OC[C@H](O)CN1CCN(c2ccc(F)cc2)CC1`, the figure is 0.832 µM. For `CCC(=O)c1ccccc1OC[C@H](O)CN(C(C)C)C(C)C`, a half-maximal effect (EC50) was put at 4.27 µM. As for `CCC(=O)c1ccccc1OC[C@H](O)CN1CCN(Cc2ccccc2)CC1`, the figure is 1.45 µM; as for `CCC(=O)c1ccccc1OC[C@H](O)CNCCC(c1ccccc1)c1ccccc1`, 0.12 µM; as for `CC(=O)c1cc(C)ccc1OC[C@H](O)CN1CCOCC1`, 12.6 µM.

With `CC(=O)c1cc(C)ccc1OC[C@H](O)CN(C(C)C)C(C)C`, the EC50 was 6.17 µM. Under `CC(=O)c1cc(C)ccc1OC[C@H](O)CN1CCN(c2ccc(F)cc2)CC1` stands 3.63 µM; under `Cc1ccc(OC[C@H](O)CN2CCCCC2)c(C(=O)CCc2ccccc2)c1`, 0.263 µM. Under `Cc1ccc(OC[C@H](O)CN2CCOCC2)c(C(=O)CCc2ccccc2)c1` stands 1.66 µM.

`Cc1ccc(OC[C@H](O)CN2CCN(c3ccc(F)cc3)CC2)c(C(=O)CCc2ccccc2)c1` gave an EC50 of 0.245 µM.

The molecule `Cc1ccc(OC[C@H](O)CN2CCN(c3cccc(C)c3C)CC2)c(C(=O)CCc2ccccc2)c1` gave an EC50 of 0.0562 µM. Under `Cc1ccc(NC(=S)N2CCN(C[C@@H](O)COc3ccccc3C(=O)c3ccccc3)CC2)cc1` stands 0.38 µM. In turn, `Cc1ccc(NC(=O)N2CCN(C[C@@H](O)COc3ccccc3C(=O)c3ccccc3)CC2)cc1` had an EC50 of 0.479 µM. Under `O=C(c1ccccc1)c1ccccc1OC[C@@H](O)CN1CCN(C[C@@H](O)COc2ccccc2C(=O)c2ccccc2)CC1` stands 0.0525 µM. In turn, `CC(=O)c1cc(C)ccc1OC[C@H](O)CN1CCN(C[C@H](O)COc2ccccc2C(=O)c2ccccc2)CC1` showed an EC50 of 9.55 µM. As for `COc1ccc(N2CCN(C[C@@H](O)COc3ccc(C)cc3C(C)=O)CC2)cc1`, the figure is 3.47 µM.

`CC(=O)c1cc(C)ccc1OC[C@H](O)CN1CCN(C(=O)Nc2ccc(C)cc2)CC1`: the EC50 was 7.41 µM.

For `CC(=O)c1cc(C)ccc1OC[C@H](O)CN1CCN(c2ccc(C)cc2)CC1`, the EC50 is 3.16 µM. As for `O=C(c1ccccc1)c1ccc(OC[C@H](O)CN2CCN(c3ccc(F)cc3)CC2)cc1`, the figure is 0.977 µM; as for `Cc1ccccc1N1CCN(C[C@@H](O)COc2ccc(C(=O)c3ccccc3)cc2)CC1`, 0.501 µM; as for `Cc1cccc(N2CCN(C[C@@H](O)COc3ccc(C(=O)c4ccccc4)cc3)CC2)c1C`, 0.661 µM. Under `CCC(=O)c1ccc(OC[C@H](O)CN2CCN(c3cccc(C)c3C)CC2)cc1` stands 1.41 µM; under `CCC(=O)c1ccc(OC[C@H](O)CN2CCN(c3ccc(F)cc3)CC2)cc1`, 1.45 µM; under `CCC(=O)c1ccc(OC[C@H](O)CN2CCN(c3ccccc3C)CC2)cc1`, 0.871 µM.

With `CCC(=O)c1ccc(OC[C@H](O)CN2CCCCC2)cc1`, the midpoint of the response, the EC50, lay at 33.1 µM.

`O=C(CCc1cccc2ccccc12)c1ccc(OC[C@H](O)CN2CCOCC2)cc1` had an EC50 of 1.55 µM. Under `O=C(c1ccccc1)c1ccccc1OC[C@H](O)CN1CCOCC1` stands 13.5 µM.

For the molecule `O=C(CCc1cccc2ccccc12)c1ccccc1OC[C@H](O)CN1CCN(c2ccc(F)cc2)CC1`, the EC50 was 0.0178 µM. Under `O=C(c1ccccc1)c1ccc(OC[C@H](O)CN2CCOCC2)cc1` stands 5.37 µM; under `O=C(c1ccccc1)c1ccc(OC[C@H](O)CN2CCCCC2)cc1`, 2.19 µM. As for `CCC(=O)c1ccc(OC[C@H](O)CN(C(C)C)C(C)C)cc1`, the figure is 7.76 µM; as for `O=C(c1ccccc1)c1cccc(OC[C@H](O)CN2CCN(c3ccc(F)cc3)CC2)c1`, 0.575 µM.

`Cc1cccc(N2CCN(C[C@@H](O)COc3cccc(C(=O)c4ccccc4)c3)CC2)c1C` had an EC50 of 0.174 µM. In the case of `O=C(c1ccccc1)c1cccc(OC[C@H](O)CN2CCCCC2)c1`, the EC50 was 3.55 µM. As for `Cc1ccccc1N1CCN(C[C@@H](O)COc2cccc(C(=O)c3ccccc3)c2)CC1`, the figure is 0.204 µM. As for `Cc1cccc(N2CCN(C[C@@H](O)COc3ccc(C(=O)CCc4cccc5ccccc45)cc3)CC2)c1C`, the figure is 0.479 µM; as for `O=C(CCc1cccc2ccccc12)c1ccc(OC[C@H](O)CN2CCN(c3ccc(F)cc3)CC2)cc1`, 0.55 µM; as for `Cc1ccccc1N1CCN(C[C@@H](O)COc2ccc(C(=O)CCc3cccc4ccccc34)cc2)CC1`, 0.407 µM.

In turn, `Cc1cccc(N2CCN(C[C@@H](O)COc3cccc(C(=O)CCc4cccc5ccccc45)c3)CC2)c1C` had an EC50 of 0.263 µM.
